Key:
Rattus norvegicus = test: Effective dose following intravenous administration to conscious rats for inhibition of AII-induced pressor response; type: functional
[1] = molecular target: Angiotensin II receptor (Cavia porcellus); test: Inhibition of [125I]AII binding to guinea pig adrenal membrane

Structure (SMILES)	ED50 (Rattus norvegicus)	IC50 [1]
CCc1cc(OCc2ccc(-c3ccccc3-c3nn[nH]n3)cc2)c2ccccc2n1	1 mg/kg	–
COC(=O)c1c(NCc2ccc(-c3ccccc3-c3nn[nH]n3)cc2)cc(C)nc1C	–	8.03 nM
CCc1cc(OCc2ccc(-c3ccccc3-c3nn[nH]n3)cc2)c(I)c(CC)n1	0.44 mg/kg	14 nM
CCc1cc(NCc2ccc(-c3ccccc3-c3nn[nH]n3)cc2)c(-c2ccc(C(F)(F)F)cc2)c(CC)n1	–	26.4 nM
CCc1cc(NCc2ccc(-c3ccccc3-c3nn[nH]n3)cc2)c(Cl)c(CC)n1	0.06 mg/kg	7.58 nM
CCc1cc(NCc2ccc(-c3ccccc3-c3nn[nH]n3)cc2)c(Br)c(CC)n1	0.09 mg/kg	3.83 nM
CCc1cc(NCc2ccc(-c3ccccc3-c3nn[nH]n3)cc2)c(C(=O)OC)c(CC)n1	–	6.21 nM
CCc1cc(NCc2ccc(-c3ccccc3-c3nn[nH]n3)cc2)c(-c2ccc(C)cc2)c(CC)n1	–	24.9 nM
CCc1cc(NCc2ccc(-c3ccccc3-c3nn[nH]n3)cc2)c(I)c(CC)n1	0.13 mg/kg	2.64 nM
Cc1cc(NCc2ccc(-c3ccccc3-c3nn[nH]n3)cc2)c(I)c(C)n1	0.05 mg/kg	3.48 nM
Cc1cc(NCc2ccc(-c3ccccc3-c3nn[nH]n3)cc2)c(Cl)c(C)n1	0.03 mg/kg	6.65 nM
CCc1cc(OCc2ccc(-c3ccccc3-c3nn[nH]n3)cc2)c2c(n1)CCCC2	0.39 mg/kg	–
CCCCc1nc(Cl)c(CO)n1Cc1ccc(-c2ccccc2-c2nnn[nH]2)cc1 [LOSARTAN]	0.65 mg/kg	–

— ChEMBL document CHEMBL1127863, “New nonpeptide angiostensin II receptor antagonists. Synthesis, biological properties and structure-activity relationships of 3-substituted 2,6-dialkyl-4-(biphenyll)methylaminopyridine derivatives” (Bioorg Med Chem Lett, 1994)
